Consider twelve compounds from patent US20250152585A1, “PHARMACEUTICAL COMPOUND” (Duke Street Bio Limited, priority 2022, published 2025).

Where two headings read alike, the source gives them in different places.

For experiment [1], the target named is T1, N-terminally FLAG-tagged PARP2 (amino acids 1-583) (Homo sapiens, UniProt Q9UGN5).
T1 construct: N-terminally FLAG-tagged PARP2 (amino acids 1-583)
Description: PARP2 probe displacement HTRF assay. The format is binding. The settings on record: binned Kd. As to the method: Data analysis was performed identical as for PARP1.

For experiment [2], the target named is T2, full length N-terminally FLAG-tagged PARP1 (Homo sapiens, UniProt P09874). Description: PARP1 biochemical DELFIA assay (auto-PARylation). Set-up: recombinant full length human N-terminally FLAG-tagged PARP1.
Experiment [3] has as its target T2, full length N-terminally FLAG-tagged PARP1. As to the kind of experiment: PARP1 probe displacement HTRF assay. The settings on record: for Selectivity: PARP1 over PARP2, ratio Kd (PARP2)/Kd (PARP1); for Kd: read-out: PARP1 HTRF, binned Kd.
Setting [4] is: binned IC50, PARP1 biochemical DELFIA assay.
The mark [5] stands for this setting: binned IC50, biochemical auto-PARylation assay.

T2 sequence (P09874 whole entry): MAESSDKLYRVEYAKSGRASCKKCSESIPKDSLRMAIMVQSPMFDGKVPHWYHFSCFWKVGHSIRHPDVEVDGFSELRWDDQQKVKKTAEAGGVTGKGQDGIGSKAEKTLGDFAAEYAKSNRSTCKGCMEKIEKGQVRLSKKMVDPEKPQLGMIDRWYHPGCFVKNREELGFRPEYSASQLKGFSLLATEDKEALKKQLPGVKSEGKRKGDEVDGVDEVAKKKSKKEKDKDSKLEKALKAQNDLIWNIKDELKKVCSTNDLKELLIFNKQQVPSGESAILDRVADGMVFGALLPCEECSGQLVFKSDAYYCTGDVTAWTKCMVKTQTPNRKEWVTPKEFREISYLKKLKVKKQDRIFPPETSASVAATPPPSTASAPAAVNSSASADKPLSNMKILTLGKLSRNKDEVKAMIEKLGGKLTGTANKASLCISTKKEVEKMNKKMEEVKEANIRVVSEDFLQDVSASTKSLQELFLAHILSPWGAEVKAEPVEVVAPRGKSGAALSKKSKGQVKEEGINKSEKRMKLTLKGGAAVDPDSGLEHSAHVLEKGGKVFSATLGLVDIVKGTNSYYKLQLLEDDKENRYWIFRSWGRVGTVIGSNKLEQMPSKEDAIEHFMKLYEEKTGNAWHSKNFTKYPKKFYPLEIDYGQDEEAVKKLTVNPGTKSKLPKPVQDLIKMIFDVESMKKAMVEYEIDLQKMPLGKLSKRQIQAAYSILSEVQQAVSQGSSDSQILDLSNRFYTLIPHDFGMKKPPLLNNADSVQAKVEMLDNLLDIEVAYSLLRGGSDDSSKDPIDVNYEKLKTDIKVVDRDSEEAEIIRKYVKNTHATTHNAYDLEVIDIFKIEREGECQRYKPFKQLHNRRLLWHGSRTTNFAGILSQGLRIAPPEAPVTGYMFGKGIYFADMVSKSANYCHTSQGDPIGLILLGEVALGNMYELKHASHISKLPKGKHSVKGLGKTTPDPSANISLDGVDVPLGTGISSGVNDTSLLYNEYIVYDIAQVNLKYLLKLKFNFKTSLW
T1 sequence (Q9UGN5 whole entry, the tested form may be a part): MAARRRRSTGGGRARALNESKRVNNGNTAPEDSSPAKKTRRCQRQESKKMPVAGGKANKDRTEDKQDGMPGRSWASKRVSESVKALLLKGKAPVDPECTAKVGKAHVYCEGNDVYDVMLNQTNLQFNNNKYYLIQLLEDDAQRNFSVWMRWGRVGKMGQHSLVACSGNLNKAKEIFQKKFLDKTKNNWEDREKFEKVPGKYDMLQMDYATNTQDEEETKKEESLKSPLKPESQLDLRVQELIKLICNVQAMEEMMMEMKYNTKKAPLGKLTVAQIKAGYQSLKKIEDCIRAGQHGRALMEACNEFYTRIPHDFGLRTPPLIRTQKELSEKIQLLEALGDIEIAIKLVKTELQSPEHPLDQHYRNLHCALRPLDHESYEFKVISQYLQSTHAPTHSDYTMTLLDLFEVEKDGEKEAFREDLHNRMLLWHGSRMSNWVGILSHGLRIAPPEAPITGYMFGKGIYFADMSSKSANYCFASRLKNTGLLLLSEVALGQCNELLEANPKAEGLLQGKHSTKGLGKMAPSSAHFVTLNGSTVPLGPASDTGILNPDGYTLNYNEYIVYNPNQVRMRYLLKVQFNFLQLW

The IC50 is the concentration at which inhibition is half-maximal. Turning to `CNC(=O)c1ccc(N2CCC(N3CCC(c4nc5cccc(F)c5c(=O)[nH]4)C3)CC2)cn1` (single isomer, unassigned) [Compound 101b], the Kd was 100 to 1000 nM in experiment [1] (PARP2 probe displacement HTRF) and below 10 nM in experiment [3] (PARP1 probe displacement HTRF). Besides, the IC50 in experiment [2] (setting [4]) is below 10 nM. Also, the Selectivity entry in experiment [3] (probe displacement HTRF) was “+++ (+++ indicate a value of at least 100)”.
With `CC(=O)NC(=O)c1ccc(N2CCC(N3CCC(c4cc5ccccc5c(=O)[nH]4)C3)CC2)cc1` (single isomer, unassigned) [Compound 341a], in experiment [1] (probe displacement HTRF), the Kd fell in the range of 100 to 1000 nM. Also, in experiment [2] (setting [5]), the IC50 was below 10 nM. In experiment [3] (probe displacement HTRF), the Selectivity result is reported as “+++ (+++ indicate a value of at least 100)” and the Kd was below 10 nM.
Consider `CNC(=O)c1ccc(N2CCC(N3CCC(c4nc5c(c(=O)[nH]4)CCC5)C3)CC2)cn1` (single isomer, unassigned) [Compound 283a], for which, in experiment [1] (probe displacement HTRF), the Kd is above 10000 nM. In addition, the concentration for half-maximal inhibition (IC50) in experiment [2] (setting [5]) is 100 to 1000 nM. For the same compound, in experiment [3] (probe displacement HTRF), the Selectivity entry is recorded as “+ (+ indicates a value of 10 to less than 50)” and the Kd lay in the range of 100 to 1000 nM.
Consider `CNC(=O)c1ccc(N2CCC(N3CCC(c4cc5ncccc5c(=O)[nH]4)C3)CC2)cn1` (single isomer, unassigned) [Compound 218b], for which the values for the Kd in experiment [1] (PARP2 probe displacement HTRF) and in experiment [3] (PARP1 probe displacement HTRF) were 100 to 1000 nM and below 10 nM, respectively. Besides, the IC50 in experiment [2] (setting [4]) was below 10 nM. For the same compound, in experiment [3] (probe displacement HTRF), the Selectivity entry is listed as “+++ (+++ indicate a value of at least 100)”.
For `CNC(=O)c1ccc(N2CCC(N3CCC(c4cc5c(C(F)(F)F)cccc5c(=O)[nH]4)C3)CC2)cn1` (single isomer, unassigned) [Compound 167a], the Kd in experiment [1] (PARP2 probe displacement HTRF) is above 10000 nM; in experiment [3] (PARP1 probe displacement HTRF), 10 to 100 nM. Moreover, the 50% inhibitory concentration (IC50) in experiment [2] (setting [4]) fell in the range of 10 to 100 nM. Moreover, the Selectivity entry in experiment [3] (probe displacement HTRF) is on record as “++ (++ indicates a value of 50 to less than 100)”.
As to `CNC(=O)c1ccc(N2CCC(N3CCC(c4nc5ccccc5c(=O)[nH]4)C3)CC2)c(C(F)F)n1` (single isomer, unassigned) [Compound 158a], the Kd in experiment [1] (PARP2 probe displacement HTRF) was 1000 to 10000 nM; in experiment [3] (PARP1 probe displacement HTRF), below 10 nM. In addition, the half-inhibitory concentration (IC50) in experiment [2] (setting [4]) is below 10 nM. In experiment [3] (probe displacement HTRF), the Selectivity result is “+++ (+++ indicate a value of at least 100)”.
`CNC(=O)c1ccc(N2CCC(N3CCC(c4cc5c(F)cc(F)cc5c(=O)[nH]4)C3)CC2)cn1` (single isomer, unassigned) [Compound 186a]: the Kd was 100 to 1000 nM in experiment [1] (PARP2 probe displacement HTRF) and below 10 nM in experiment [3] (PARP1 probe displacement HTRF). Besides, in experiment [2] (setting [4]), the IC50 was below 10 nM. Further, in experiment [3] (probe displacement HTRF), the Selectivity entry was “+++ (+++ indicate a value of at least 100)”.
For the compound `N#Cc1ccc(N2CCC(N3CCC(c4cc5cccc(F)c5c(=O)[nH]4)C3)CC2)c(F)c1` (single isomer, unassigned) [Compound 356b], the Kd in experiment [1] (probe displacement HTRF) is 1000 to 10000 nM. For the same compound, the IC50 in experiment [2] (setting [5]) lay within 100 to 1000 nM. Further, in experiment [3] (probe displacement HTRF), the Selectivity entry was “+ (+ indicates a value of 10 to less than 50)” and the Kd is 100 to 1000 nM.
With `N#Cc1ccc(N2CCC(N3CCCC(c4nc5ccccc5c(=O)[nH]4)C3)CC2)nc1` (single isomer, unassigned) [Compound 74b], the results for the Kd in experiment [1] (PARP2 probe displacement HTRF) and in experiment [3] (PARP1 probe displacement HTRF) were 1000 to 10000 nM and 10 to 100 nM, respectively. In experiment [2] (setting [4]), the IC50 was 10 to 100 nM. The Selectivity result in experiment [3] (probe displacement HTRF) is on record as “++ (++ indicates a value of 50 to less than 100)”.
`CNC(=O)c1ccc(N2CCC(N3CCC(c4cc5cccc(O)c5c(=O)[nH]4)C3)CC2)cn1` (racemic) [Compound 271rac] displayed a Kd in experiment [1] (probe displacement HTRF) of 100 to 1000 nM. Besides, the IC50 in experiment [2] (setting [5]) is below 10 nM. Moreover, in experiment [3] (probe displacement HTRF), the Selectivity result was “+++ (+++ indicate a value of at least 100)” and the Kd was below 10 nM.
For the compound `CNC(=O)c1ccc(N2CC(N3CCC(c4nc5ccccc5c(=O)[nH]4)C3)C2)cn1` (single isomer, unassigned) [Compound 61b], the figures for the Kd in experiment [1] (PARP2 probe displacement HTRF) and in experiment [3] (PARP1 probe displacement HTRF) were 1000 to 10000 nM and below 10 nM, respectively. Moreover, the 50% inhibitory concentration (IC50) in experiment [2] (setting [4]) was below 10 nM. In addition, the Selectivity result in experiment [3] (probe displacement HTRF) is on record as “+++ (+++ indicate a value of at least 100)”.
In the case of `CNC(=O)c1ccc(N2CC(N3CCCC(c4nc5ccccc5c(=O)[nH]4)CC3)C2)cn1` (single isomer, unassigned) [Compound 145b], the Kd is 1000 to 10000 nM in experiment [1] (PARP2 probe displacement HTRF) and below 10 nM in experiment [3] (PARP1 probe displacement HTRF). Moreover, in experiment [2] (setting [4]), the IC50 was below 10 nM. In addition, in experiment [3] (probe displacement HTRF), the Selectivity result is given as “+++ (+++ indicate a value of at least 100)”.
